Data on one molecule can be found in PMC4541410 (Scientific Reports, 2015).

Where a SMILES comes first, the peptide text is derived from it.

One series addresses T1, N36 (gp41 NHR peptide) (Human immunodeficiency virus type 1 group M subtype B, UniProt P04578).
T1 construct: gp41 NHR (“N36”, 546-581); made in house; host or cells: chemical solid-phase FMOC synthesis
Briefly: CD spectroscopy and thermal midpoint analysis of peptide/N36 complexes. The series is classed as physicochemical, HIV-1. The protocol: Briefly, each peptide or peptide mixture was dissolved in phosphate-buffered saline (PBS: 50 mM sodium phosphate and 150 mM NaCl, pH 7.2) at the final concentration of 10 μM and incubated at 37 °C for 30 min before cooling down to 4 °C. The CD spectra of each sample were acquired on a Jasco spectropolarimeter (Model J-815, Jasco Inc., Japan) at 4 °C using a 5 nm bandwidth, 0.1 nm resolution, 0.1 cm path length and an average time of 5.0 sec. Spectra were corrected by the subtraction of a blank corresponding to the solvent composition of each sample. Thermal midpoint analysis was used to determine the temperature at which 50% of the 6-HB formed by the CHR and NHR would decompose. It was monitored at 222 nm from 4 °C to 98 °C by applying a thermal gradient of 5 °C/min. The melting curve was smoothed and the midpoint of the thermal unfolding transition (Tm) values was calculated using Jasco software utilities as described above.

The test system of the next series is 94US_33931N (B). To be noted: read-out: IC50 (nM), infection by primary isolate 94US_33931N (B); primary HIV-1 isolate, subtype B.
For series [1], the system named is T20-resistant HIV-1 variant N42T/N43K. The series is classed as cell-based.
Series [2] has as its system T20-resistant HIV-1 variant V38A. The series is classed as cell-based.
Another series concerns proteinase K. The series can be described thus: in vitro. The note with it: proteinase K in PBS, pH 7.2. The method, then: Chromatographic analyses were performed using an ODS-C8 column (5 μm, 100 mm × 2.0 mm ID) kept at ambient temperature. The mobile phase was composed of acetonitrile-water-formic acid in the ratio of 50:50:0.1 (v/v/v) at a flow rate of 0.3 mL/min. The sample injection volume was 10 μL. Acetonitrile was HPLC grade and other chemical reagents and solvents were analytical grade. A Thermo TSQ Quantum Discovery MAX triple-quadruple tandem mass spectrometer equipped with ESI source (San Jose, CA) and Surveyor LC pump were used for LC-MS analysis. Data acquisition and data processing were performed by using Xcalibur software and LCQuan 2.0 data analysis program (Thermo Finnigan), respectively. Optimized MS parameters were as below: 4800 V spray voltage, 40.0 psi sheath gas pressure, 1.0 psi auxiliary valve flow and 300 °C of capillary temperature. When running collision-induced dissociation (CID), the pressure was set to 1.5 mTorr.
The peptides (10 μg/mL) were prepared in PBS pH 7.2 containing 20 ng/ml proteinase K. The resulting mixture were incubated at 37 °C in a water bath and taken out at different time intervals (0, 5, 15, 30, 60, 120 minutes), followed by quenching the samples with ethyl alcohol and quantitating the peptides by LC-MS analysis as described above.

In series [3] the test system is T20-resistant HIV-1 strains.
A further series in a line: in vivo. To be noted: male, Sprague-Dawley (SD), rat, plasma, iv, 1 mg/kg.
The test system of another series is 93IN101 (C). To be noted: read-out: IC50 (nM), infection by primary isolate 93IN101 (C); primary HIV-1 isolate, subtype C.
Series [4] has as its system T20-resistant HIV-1 variant V38E/N42S. The class given is cell-based.
Series [5] relates to preexisting antibodies in sera from HIV-1-infected patients. Briefly: Sandwich ELISA: cross-reactivity of peptides with preexisting antibodies in HIV-1-infected patients. The note with it: peptide coated at 10 μg/ml, serially diluted sera, 37 °C 1 h, A450. The series is classed as binding, human. The method, then: A sandwich ELISA was conducted to determine the cross-reactivity of the peptides with the preexisting antibodies in HIV-1-infected patients. […] The wells were then blocked with 1% gelatin, followed by addition of 50 μl of serially diluted sera from HIV-1-infected patients and incubation at 37 °C for 1 h. Then, HRP-labeled goat-anti-human IgG (Abcam, UK) and TMB were added sequentially. A450 was determined with an ELISA reader (Ultra 384, Tecan).

In a further series the test system is 92UG024 (D). The series is classed as cell-based. To be noted: primary HIV-1 isolate, subtype D; read-out: IC50 (nM), infection by primary isolate 92UG024 (D).
Series [6] deals with HIV-1IIIB (subtype B, X4). To be noted: read-out: IC50, inhibition of infection by HIV-1IIIB; MT-2 cells, 100 TCID50, p24 ELISA day 4; triplicate, repeated twice. The text has this: (§1) Then, the culture supernatants were changed to fresh media. On the fourth day post-infection, culture supernatants were collected for detection of p24 antigen by ELISA. […] Then, the culture supernatants were changed to fresh media. On the fourth day post-infection, the culture supernatants were discarded and fresh media were complemented again. The supernatants were collected on the seventh day post-infection and tested for p24 antigen by ELISA as previously described. The percent inhibition of p24 production was calculated.

In another series the test system is HIV-1Bal (subtype B, R5). The note with it: read-out: IC50, inhibition of infection by HIV-1Bal; M7 cells, 100 TCID50, p24 ELISA day 7; triplicate, repeated twice.
Description: as §1

The test system of a further series is BCF020 (Group O). To be noted: read-out: IC50 (nM), infection by primary isolate BCF020 (Group O), primary HIV-1 isolate.
The target in series [7] is T2, gp41 6-HB formation between N36 and C34 (Human immunodeficiency virus type 1 group M subtype B, UniProt P04578).
T2 construct: gp41 NHR (“N36”, 546-581); made in house; host or cells: chemical solid-phase FMOC synthesis
The series can be described thus: biochemical. The series is classed as biochemical, HIV-1. The method, then:
Inhibition of gp41 six-helix bundle formation by a testing peptide was determined with a sandwich ELISA described previously. […] A450 was determined by an ELISA reader (Ultra 384, Tecan).

For a further series, the system named is 92UG029 (A). To be noted: read-out: IC50 (nM), infection by primary isolate 92UG029 (A); primary HIV-1 isolate, subtype A.

T2 sequence (P04578 546-581): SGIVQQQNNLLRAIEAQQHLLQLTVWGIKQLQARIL
T1 sequence (P04578 546-581): as above
Description for in vivo: Four male SD rats weighing approximately 200 g each were obtained from the Shanghai Medical School Animal Center and were used for the half-life assay. […] After injection, blood samples were acquired from rat orbit at several time points (8 and 30 min and 1.5, 3, 6, 9, 12 and 24 h after peptide injection) and placed in clean tubes. […] Then, HRP-labeled rabbit-anti-mouse IgG (Sigma, USA) and TMB were added in order. Absorbance at 450 nm was determined by an ELISA reader (Ultra 384, Tecan). The standard peptide parameters were obtained first. Then, the plasma peptide concentrations were determined as a function of time and the half-life was calculated by using PK Solver for Microsoft Excel to obtain pharmacokinetic parameters.

For `CC[C@H](C)[C@H](NC(=O)[C@H](CO)NC(=O)[C@H](CCC(=O)O)NC(=O)[C@H](CCC(=O)O)NC(=O)[C@H](CCC(N)=O)NC(=O)[C@H](CCCCN)NC(=O)[C@H](CCCCN)NC(=O)[C@@H](NC(=O)[C@H](CCC(N)=O)NC(=O)[C@H](CCC(=O)O)NC(=O)[C@H](CCC(=O)O)NC(=O)[C@@H](NC(=O)[C@H](CCCCN)NC(=O)[C@H](CCCCN)NC(=O)[C@@H](NC(=O)[C@H](CC(C)C)NC(=O)[C@H](CCC(=O)O)NC(=O)[C@H](CCC(=O)O)NC(=O)[C@H](CO)NC(=O)[C@H](CCCCN)NC(=O)[C@H](CCCCN)NC(=O)[C@@H](NC(=O)[C@H](CC(C)C)NC(=O)[C@H](CCC(=O)O)NC(=O)[C@H](CCC(=O)O)NC(=O)[C@@H](NC(=O)[C@H](CCCCN)NC(=O)[C@H](CCCCN)NC(=O)[C@H](CC(=O)O)NC(=O)[C@H](Cc1c[nH]c2ccccc12)NC(=O)[C@H](CCC(=O)O)NC(=O)[C@H](CCC(=O)O)NC(=O)[C@H](Cc1c[nH]c2ccccc12)NC(=O)[C@@H](NC(=O)[C@H](CCSC)NC(C)=O)[C@@H](C)O)[C@@H](C)CC)[C@@H](C)CC)[C@@H](C)CC)[C@@H](C)CC)[C@@H](C)CC)C(=O)N[C@@H](CCCCN)C(=O)N[C@@H](CCCCN)C(N)=O` [AP3] (Ac-MTWEEWDKKIEELIKKSEELIKKIEEQIKKQEESIKK-NH2), at N36 (gp41 NHR peptide) (CD thermal denaturation at 222 nm, 4 to 98 °C, 5 °C/min, 10 μM in PBS pH 7.2), the “Tm of complex with N36” value is 83.6 ^oC. The “α-helix content of complex with N36” value at N36 (gp41 NHR peptide) (CD, peptide/N36 mixture 10 μM in PBS pH 7.2, 4 °C) came out at 77.84%. Moreover, the concentration for half-maximal inhibition (IC50) with 94US_33931N (B) was 10.2 ± 0.7 nM; in series [1] it was 35.2 ± 12.5 nM; in series [2], 12.6 ± 2.66 nM; in series [3] (read-out: IC50 against T20-resistant HIV-1 strains (summary), over the T20-resistant strains of Table 1), 13 to 90 nM; in the series with 93IN101 (C), 16.3 ± 1.5 nM; in series [4], 42.4 ± 11.6 nM. Further, the IC50 was 16.5 ± 0.2 nM in the series with 92UG024 (D); 3.06 nM in [6]; 15.1 nM with HIV-1Bal (subtype B, R5); 21.9 ± 0.1 nM in the series with BCF020 (Group O); 240 nM in [7]; 7.1 ± 1.7 nM in the series on 92UG029 (A). The molecule also had a share remaining at 2 h, 10 μg/mL with proteinase K of 100%. Moreover, the “fold more effective than AP2 against T20-resistant strains” value in series [3] (AP3 versus AP2) is 2- to 4 fold. Further, the MRT in the series “in vivo” came to 8.69 h. For the same molecule, the half-life in the series “in vivo” was 6.02 h. In addition, the “reactivity with antibodies in sera from five HIV-1-infected patients” value in [5] was “none of the three artificial peptides AP1, AP2 and AP3 was recognized”. The “fold more potent than AP1 against 6-HB formation” value in series [7] (AP3 versus AP1) is recorded as “about 30 fold”. In series [7] (AP3 versus AP2), the “fold more potent than AP2 against 6-HB formation” value was roughly 15 fold.
